From patent publication US4898729A, “Treatment of hypertension, compounds and compositions for antihypertension and diuresis” (priority 1983, dated 1990)
Read-outs that look alike come from different tables or passages of the source.

How the values were obtained:
[1] = Clinical antihypertensive action dissociated from diuresis; assay type: in vivo, humans
Method: Such dosage was preferably administered at hourly intervals over a period of from 4 to 8 hours to hypertensive patients.

[2] = cited from earlier work; for Approx. Natriuretic Activity: comparison with chlorothiazide having a value of 1; for Potency as diuretic and natriuretic agent relative to chlorothiazide: chlorothiazide being one
[3] = cited from earlier work; for Range diuretic dose: Example 1 table
plasma proteins = settings: cited from earlier work
[4] = in vivo; cited from earlier work
carbonic anhydrase = settings: cited from earlier work

Compound | Approx. Natriuretic Activity [2] | Range diuretic dose [3] [mg] | Daily Diuretic Dose (average minimum diuretic dose) [3] [mg] | Binding to plasma proteins (plasma proteins) | other results
amiloride-hydrochlorothiazide salt | – | – | – | – | Diuretic response at the antihypertensive daily dose ([1]; at the daily dose of b165): without diuresis; Daily dose to achieve an antihypertensive effect ([1]; dose of active ingredients per day): about 50 mg
NS(=O)(=O)c1cc2c(cc1Cl)NC(C1CC3C=CC1C3)NS2(=O)=O (centres unmarked) [Cyclothiazide] | 500 | 1 to 6 | 2 | proportionately high binding to plasma proteins | Daily Diuretic Dose (average minimum diuretic dose) ([3]; listed as cyclothiazide): about 2 mg
NS(=O)(=O)c1cc2c(cc1Cl)N=C(CSCc1ccccc1)NS2(=O)=O [Benzthiazide] | 10 | 25 to 50 | 200 | – | Clinical alkalinization of urine [4]: does not cause an appreciable clinical alkalinization of urine; Carbonic anhydrase inhibition, in words (carbonic anhydrase): relatively potent carbonic anhydrase inhibitor
NS(=O)(=O)c1cc2c(cc1C(F)(F)F)NC(Cc1ccccc1)NS2(=O)=O (centres unmarked) [Bendroflumethiazide] | 100 | 2 to 5 | 20 | proportionately high binding to plasma proteins | –
NS(=O)(=O)c1cc2c(cc1C(F)(F)F)N=CNS2(=O)=O [Flumethiazide] | 1 | 50 to 1000 | 200 | – | –
NS(=O)(=O)c1cc2c(cc1Cl)NC(C(Cl)Cl)NS2(=O)=O (centres unmarked) [Trichlormethiazide] | 200 | 4 to 8 | 8 | proportionately high binding to plasma proteins | –
NS(=O)(=O)c1cc2c(cc1Cl)NCNS2(=O)=O [Hydrochlorothiazide] | 10 | 25 to 100 | 200 | – | –
CN1C(CSCC(F)(F)F)Nc2cc(Cl)c(S(N)(=O)=O)cc2S1(=O)=O (centres unmarked) [Polythiazide] | – | – | – | proportionately high binding to plasma proteins | –
NS(=O)(=O)c1cc2c(cc1Cl)NC(CC1CCCC1)NS2(=O)=O (centres unmarked) [Cyclopenthiazide] | 1000 | 1 to 6 | 2 | proportionately high binding to plasma proteins | Potency as diuretic and natriuretic agent relative to chlorothiazide [2]: thousand times more potent; Potency as diuretic and natriuretic agent relative to chlorothiazide ([2]; listed as cyclopenthiazide): a thousand; Daily Diuretic Dose (average minimum diuretic dose) ([3]; listed as cyclopenthiazide): about 2 mg
CN1C(CCl)Nc2cc(Cl)c(S(N)(=O)=O)cc2S1(=O)=O (centres unmarked) [Methyclothiazide] | 100 | 5 to 10 | 10 | proportionately high binding to plasma proteins | –
